Experiment [1] concerns the target T1, Bone morphogenetic protein receptor type-2 (Homo sapiens) (UniProt Q13873).
T1 sequence (whole entry): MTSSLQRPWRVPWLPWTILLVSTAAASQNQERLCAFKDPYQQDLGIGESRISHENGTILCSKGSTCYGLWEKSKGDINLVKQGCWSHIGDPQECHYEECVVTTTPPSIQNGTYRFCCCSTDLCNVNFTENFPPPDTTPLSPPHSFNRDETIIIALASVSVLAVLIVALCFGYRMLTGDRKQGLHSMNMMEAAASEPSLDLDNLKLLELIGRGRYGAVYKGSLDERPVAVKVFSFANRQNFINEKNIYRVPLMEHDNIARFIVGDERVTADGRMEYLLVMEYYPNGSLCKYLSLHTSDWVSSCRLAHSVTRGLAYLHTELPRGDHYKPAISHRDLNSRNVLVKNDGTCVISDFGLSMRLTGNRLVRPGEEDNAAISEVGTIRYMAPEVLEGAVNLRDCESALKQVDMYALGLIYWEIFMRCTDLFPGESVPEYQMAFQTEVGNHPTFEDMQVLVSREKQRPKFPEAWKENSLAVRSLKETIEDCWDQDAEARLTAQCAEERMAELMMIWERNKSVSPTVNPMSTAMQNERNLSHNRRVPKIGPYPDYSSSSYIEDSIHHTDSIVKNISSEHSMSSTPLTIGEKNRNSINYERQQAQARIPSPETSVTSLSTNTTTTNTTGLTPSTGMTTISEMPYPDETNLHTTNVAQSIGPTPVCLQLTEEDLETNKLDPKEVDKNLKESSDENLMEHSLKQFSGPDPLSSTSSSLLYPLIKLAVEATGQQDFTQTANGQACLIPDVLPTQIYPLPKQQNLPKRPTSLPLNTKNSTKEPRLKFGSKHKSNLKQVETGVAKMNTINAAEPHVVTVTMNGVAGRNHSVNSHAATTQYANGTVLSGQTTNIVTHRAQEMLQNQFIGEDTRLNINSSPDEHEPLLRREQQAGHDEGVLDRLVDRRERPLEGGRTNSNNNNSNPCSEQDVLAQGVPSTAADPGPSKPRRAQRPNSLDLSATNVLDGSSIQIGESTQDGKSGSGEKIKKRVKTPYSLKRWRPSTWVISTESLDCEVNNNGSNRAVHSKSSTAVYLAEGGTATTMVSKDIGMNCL
Kind of experiment: Competitive binding affinity to BMPR2 (unknown origin) at 10 uM in presence of ATP relative to control.

The target of experiment [2] is T2, Receptor-interacting serine/threonine-protein kinase 1 (Homo sapiens) (UniProt Q13546).
T2 sequence (whole entry): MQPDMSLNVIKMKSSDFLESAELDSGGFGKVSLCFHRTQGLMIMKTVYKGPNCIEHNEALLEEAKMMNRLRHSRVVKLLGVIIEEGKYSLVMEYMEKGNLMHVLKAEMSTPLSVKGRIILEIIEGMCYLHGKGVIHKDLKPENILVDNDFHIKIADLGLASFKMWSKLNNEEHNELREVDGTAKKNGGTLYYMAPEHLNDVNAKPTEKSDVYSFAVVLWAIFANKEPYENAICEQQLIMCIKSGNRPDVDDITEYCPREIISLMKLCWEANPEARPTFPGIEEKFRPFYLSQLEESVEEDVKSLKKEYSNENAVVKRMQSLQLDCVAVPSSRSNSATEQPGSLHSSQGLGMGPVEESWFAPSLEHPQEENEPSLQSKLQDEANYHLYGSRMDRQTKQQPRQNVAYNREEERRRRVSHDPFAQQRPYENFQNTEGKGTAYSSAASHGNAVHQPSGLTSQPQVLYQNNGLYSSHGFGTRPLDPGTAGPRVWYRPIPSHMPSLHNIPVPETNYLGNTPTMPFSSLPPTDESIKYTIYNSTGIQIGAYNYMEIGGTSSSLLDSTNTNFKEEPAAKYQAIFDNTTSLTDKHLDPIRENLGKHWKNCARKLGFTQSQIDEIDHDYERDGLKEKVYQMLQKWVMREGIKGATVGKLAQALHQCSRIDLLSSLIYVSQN
Kind of experiment: Competitive binding affinity to RIPK1 (unknown origin) at 10 uM in presence of ATP relative to control.

Structures are written as SMILES.

Regarding `O[C@H]1CC[C@H](Nc2nccc(-n3ccc4ccccc43)n2)CC1`, the inhibition in experiment [1] and in experiment [2] was less than 50% in each case.
Turning to `O[C@H]1CC[C@H](Nc2nccc(-n3ncc4ccccc43)n2)CC1`, the inhibition in experiment [1] and in experiment [2] was less than 50% in each case.
Turning to `O[C@H]1CC[C@H](Nc2nccc(-n3nnc4ccccc43)n2)CC1`, the values for the inhibition in experiment [1] and in experiment [2] were 85% and less than 50%, respectively.

Source of the values: ChEMBL document CHEMBL2424622, “Development of amino-pyrimidine inhibitors of c-Jun N-terminal kinase (JNK): kinase profiling guided optimization of a 1,2,3-benzotriazole lead” (Bioorg Med Chem Lett, 2013).
